In PubChem BioAssay (NCI):
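Method: 48-hour compound exposure of cells in 96-well plates, five concentrations, linear interpolation of endpoints. At the GI50, growth is halved. Definition used: TGI = concentration required for complete inhibition of growth.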

Legend:
Assay in all cases: NCI-60 cell line screen, 48 h
M19-MEL melanoma = system: M19-MEL melanoma
KM20L2 colon = system: KM20L2 colon
DLD-1 colon = system: DLD-1 colon
MDA-N = system: MDA-N
XF 498 CNS = system: XF 498 CNS
DMS 114 small cell lung = system: DMS 114 small cell lung
DMS 273 small cell lung = system: DMS 273 small cell lung
HOP-18 NSCLC = system: HOP-18 NSCLC
RXF-631 renal = system: RXF-631 renal

Compound	TGI (M19-MEL melanoma) [µM]	TGI (KM20L2 colon) [µM]	TGI (DLD-1 colon) [µM]	TGI (XF 498 CNS) [µM]	TGI (DMS 114 small cell lung) [µM]	TGI (DMS 273 small cell lung) [µM]	TGI (HOP-18 NSCLC) [µM]	TGI (RXF-631 renal) [µM]	other results
CCNCC(=O)O[C@]1(CC)C(=O)OCc2c1cc1n(c2=O)Cc2cc3ccccc3nc2-1	5.44	> 100	> 100	1.56	2.53	0.328	20.5		TGI (MDA-N): 6.95 µM
CC(C)c1ccccc1NC(=O)C(=O)Cc1nc2ccccc2s1	> 100	> 100			> 100	> 100	> 100	> 100	
O=C(CO)CC(=O)C(=O)Nc1nc([N+](=O)[O-])cs1	> 100	> 100	> 100		> 100	> 100	> 100	> 100	
Cc1cc2c(=O)n(-c3ccc(F)cc3)c(C)nc2c(C(=O)O)c1C	> 100	> 100	> 100		> 100	> 100	> 100		
N/N=C1\C(=O)N(C2CCCCC2)C(=O)C1C(=O)NC1CCCCC1 (stereo not given)	> 100	39.9	> 100	> 100	> 100		> 100	> 100	
COc1ccc(/C(=N/NC(=O)NN)C(c2ccc(OC)cc2)C2(O)CNc3c(Cl)cc(Cl)cc32)cc1 (stereo not given)	> 100	> 100	> 100		> 100		> 100	> 100	
CC(=O)C1CC=C(C)CC1 (stereo not given)	> 100	> 100	> 100	> 100	> 100	> 100	> 100	> 100	
Cc1cc(N(CCC#N)S(C)(=O)=O)ccc1C=O		> 100	> 100		> 100	> 100	> 100		
CC1C[C@H](OC(N)=O)C(C)CC1=O (stereo not given in full)	> 100	> 100	> 100	> 100	> 100	> 100	> 100		
CCn1c2c(n(CC)c1=S)-c1c(n(CC)c(=S)n1CC)SSSS2	22.1	29.5	5.73	4.08	38.1	33.1	22	24.4	
COC1(OC)CC2C=C(S(=O)(=O)c3ccccc3)C1N(Cc1ccccc1)C2=O (stereo not given)	> 100	97.6	96.2	48.1	48.3		> 100	88.2	
CC(C)C1OC(=O)C=C1Sc1ccccc1 (stereo not given)									TGI (MDA-N): > 100 µM
NS(=O)(=O)c1cc2c(cc1Cl)NC(Cc1ccccc1)NS2(=O)=O (stereo not given)									TGI (MDA-N): > 100 µM
CCOC(=O)N1CCc2cc(OC)c(OC)c3c2C1CC3=O (stereo not given)	> 100	> 100	> 100		> 100	> 100	> 100		
O=C1C(Br)=CC2(C=C1Br)CCN=c1c2c(O)c2nc3ccccc3c3ccnc1c23									GI50 (MDA-N): 0.951 µM; TGI (MDA-N): 2.22 µM
C1CCN(CCC2CCCCN2)CC1 (stereo not given)									TGI (MDA-N): > 100 µM
Brc1ccc(-c2nnc(-c3nn(-c4ccccc4)c4nc5ccccc5nc34)o2)cc1		> 100	> 100		> 100	> 100	> 100	> 100	
N#CC(C(=O)/C(=N\Nc1nc(=S)[nH]n1N)C(C#N)c1ccc(Cl)cc1)c1ccc(Cl)cc1 (stereo not given)	> 100	> 100	> 100	> 100	> 100	> 100	> 100		
O=C(O)C1C(C(=O)Nc2ccc3c(c2)Cc2ccccc2-3)C2(Cl)C(Cl)=C(Cl)C1(Cl)C2(Cl)Cl (stereo not given)									TGI (MDA-N): > 100 µM
CCn1cc(/C=C/C(C)c2cn(CC)c(=O)[nH]c2=O)c(=O)[nH]c1=O (stereo not given)	> 100	> 100	> 100		> 100	> 100	> 100	> 100	
CCSCC(N)C(=O)O (stereo not given)									TGI (MDA-N): > 100 µM

Compound	TGI (M19-MEL melanoma) [µM]	TGI (KM20L2 colon) [µM]	TGI (DLD-1 colon) [µM]	TGI (XF 498 CNS) [µM]	TGI (DMS 114 small cell lung) [µM]	TGI (DMS 273 small cell lung) [µM]	TGI (HOP-18 NSCLC) [µM]	TGI (RXF-631 renal) [µM]	other results
CN(C)c1ccc(/C=C(/NC(=O)c2ccccc2)c2nc3ccc(Cl)cc3[nH]2)cc1	69.6	84.8	> 100			> 100	8.45		
CCOC(=O)C(=O)Nc1ccc(C)cc1C	> 100		> 100		> 100		> 100		
C=C/C=C(\NC(=O)C(Cl)(Cl)Cl)[Si](C)(C)C	> 100	> 100	> 100	> 100	> 100	> 100	> 100		
NC(=O)C1=NNc2ccccc2C(=O)N1c1ccccc1									TGI (MDA-N): > 100 µM
CC(=O)OC1CC(n2cc(F)c(=O)[nH]c2=O)OC1CO (stereo not given)	> 100	> 100	> 100	83.8	> 100	> 47	> 100		TGI (MDA-N): > 100 µM
COc1cc2c(cc1OC)-c1cc3cc(OC)c(OC)cc3n1CC2	> 100	> 100	> 100	59.7	> 100				
O=S(O)CCCCCSSCCCCSSCCCCCS(=O)O	> 100	> 100	> 100	> 100	> 100	> 100	> 100	> 100	
CCCCCC(O)C1C(=O)OC(C)C(O)/C=C/C=C/C=C/C=C\C=C(\C)C(O)CC(O)CC(O)CC(O)CC(O)CC(O)CC1O (stereo not given)									GI50 (MDA-N): > 100 µM; TGI (MDA-N): > 100 µM
O=C(CC1(O)C(=O)Nc2ccccc21)c1ccccc1Cl (stereo not given)	> 100	> 100	> 100	> 100	> 100	> 100			
CC1=CC(=O)CCC2(C)C1CC[C@@H]2OC=O (stereo not given in full)	> 100	> 100	> 100	> 100	> 100	> 100	> 100	> 100	
Cc1ccc(-c2nc(SCC(=O)O)n[nH]2)cc1	> 100	> 100	> 100	> 100	> 100	> 100	> 100		
CSc1cnn(CCC#N)c(=O)n1									TGI (MDA-N): > 100 µM
CN(C)c1ccc(N=Cc2c([O-])ccc3ccccc23)cc1.[C-]#[O+].[C-]#[O+].[Ir]	30.9	33.4	37.6	48.4	22.8		27.6		GI50 (M19-MEL melanoma): 16.2 µM; GI50 (KM20L2 colon): 18.7 µM; GI50 (DLD-1 colon): 17.4 µM; GI50 (XF 498 CNS): 20.5 µM; GI50 (DMS 114 small cell lung): 10.5 µM; GI50 (HOP-18 NSCLC): 13 µM
CC/C=C1\N=C(c2ccc(Cl)cc2)OC1=O	> 100	> 100	> 100	> 100	> 100	> 100			
CC(C)(C)NN=C1C(C)(C)C(=NNC(C)(C)C)C1(C)C	> 100	> 100	> 100	> 100	> 100	> 100			
Cn1c2c(c3ccccc31)C1CCCCC1C1C(=O)NC(=O)C21 (stereo not given)	> 100		> 100	> 100	> 100		> 100	> 100	
Cc1ccc(NC(=O)NC(=O)c2ccc([N+](=O)[O-])cc2[N+](=O)[O-])cc1Oc1ncc(Cl)cn1	21.7	0.515	12.5	16.9	10.1	1.08	25.3		
C[C@]12CCC[C@H](Cl)C1(O)C[C@H](C(=O)O)CC2 (stereo not given in full)	> 100	> 100	> 100	> 100	> 100	> 100	> 100		
NC(N)=NS(=O)(=O)c1ccc(NCc2c3ccccc3nc3ccccc23)cc1	> 100	> 100	> 77		16	> 61.6	> 86.8	> 70.1	TGI (MDA-N): > 100 µM
CCOC(=O)C(=O)Nc1c(F)cc(F)cc1Br	> 100	> 100	> 100	> 100	> 100				
CN1C2(c3ccccc3)c3c(-c4ccccc4)sc(-c4ccccc4)c3C1(c1ccccc1)C1C(=O)N(c3ccccc3)C(=O)C12 (stereo not given)	> 100	> 100	> 100	> 100	> 100	> 100	> 100	> 100	
